Assay results published in US12492188B2, “1H-benzo[D]imidazole derivatives as TLR9 inhibitors for the treatment of fibrosis” (BRISTOL-MYERS SQUIBB COMPANY, priority 2020, dated 2025).
Like-named read-outs stand apart in the source and are kept apart here.

Key:
Assay type in all cases: cell-based
[1] = target: T1, human TLR9 (Homo sapiens, UniProt Q9NR96); test: TLR9 inhibition reporter assay (HEK-Blue cells, secreted embryonic alkaline phosphatase reporter); settings: HEK-Blue cells overexpressing human TLR9, stimulated with ODN2006 5 nM
T1 construct: host or cells: HEK-Blue cells (HEK293-derived reporter line)
T1 sequence (Q9NR96 26-1032): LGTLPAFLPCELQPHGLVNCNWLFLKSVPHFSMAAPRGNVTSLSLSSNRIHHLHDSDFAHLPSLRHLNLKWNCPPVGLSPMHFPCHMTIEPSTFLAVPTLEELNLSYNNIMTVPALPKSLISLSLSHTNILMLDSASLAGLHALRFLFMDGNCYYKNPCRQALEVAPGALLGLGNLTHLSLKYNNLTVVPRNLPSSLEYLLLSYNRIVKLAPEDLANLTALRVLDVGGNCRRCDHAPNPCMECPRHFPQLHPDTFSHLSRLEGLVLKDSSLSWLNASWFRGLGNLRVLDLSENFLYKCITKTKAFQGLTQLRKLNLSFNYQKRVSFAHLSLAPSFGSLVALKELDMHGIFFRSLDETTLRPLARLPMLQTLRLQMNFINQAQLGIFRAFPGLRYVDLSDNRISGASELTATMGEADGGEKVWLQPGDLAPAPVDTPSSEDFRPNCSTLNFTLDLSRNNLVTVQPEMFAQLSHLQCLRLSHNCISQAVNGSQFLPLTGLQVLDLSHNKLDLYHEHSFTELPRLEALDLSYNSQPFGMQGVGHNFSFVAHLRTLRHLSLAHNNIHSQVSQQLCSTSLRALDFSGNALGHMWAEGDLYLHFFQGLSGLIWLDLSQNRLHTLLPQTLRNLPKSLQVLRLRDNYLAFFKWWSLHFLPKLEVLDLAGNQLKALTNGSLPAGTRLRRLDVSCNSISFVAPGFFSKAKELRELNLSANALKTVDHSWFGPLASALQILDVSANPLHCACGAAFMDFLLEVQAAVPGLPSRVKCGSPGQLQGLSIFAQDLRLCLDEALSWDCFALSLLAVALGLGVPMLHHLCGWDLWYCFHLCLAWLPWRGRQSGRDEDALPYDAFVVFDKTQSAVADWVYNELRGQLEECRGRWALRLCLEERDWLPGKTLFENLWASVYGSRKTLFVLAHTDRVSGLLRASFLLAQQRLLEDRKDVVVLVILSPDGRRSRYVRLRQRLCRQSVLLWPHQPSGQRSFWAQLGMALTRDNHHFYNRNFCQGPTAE
How it was run: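 Steps: seed receptor-specific HEK-Blue cells; add compound, 0.05 nM–50 μM; wait 30 min at room temperature; add final gardiquimod 7.5 μM, R848 15.9 μM or ODN2006 5 nM for TLR7, TLR8 or TLR9; incubate 22 h at 37 °C; detect NF-κB/AP-1-driven SEAP.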

[2] = target: T2, human TLR7 (Homo sapiens, UniProt Q9NYK1); test: TLR7 inhibition reporter assay (HEK-Blue cells, secreted embryonic alkaline phosphatase reporter); settings: HEK-Blue cells overexpressing human TLR7, stimulated with gardiquimod 7.5 μM; read-out: TLR 7 IC50
T2 construct: host or cells: HEK-Blue cells (HEK293-derived reporter line)
T2 sequence (Q9NYK1 27-1049): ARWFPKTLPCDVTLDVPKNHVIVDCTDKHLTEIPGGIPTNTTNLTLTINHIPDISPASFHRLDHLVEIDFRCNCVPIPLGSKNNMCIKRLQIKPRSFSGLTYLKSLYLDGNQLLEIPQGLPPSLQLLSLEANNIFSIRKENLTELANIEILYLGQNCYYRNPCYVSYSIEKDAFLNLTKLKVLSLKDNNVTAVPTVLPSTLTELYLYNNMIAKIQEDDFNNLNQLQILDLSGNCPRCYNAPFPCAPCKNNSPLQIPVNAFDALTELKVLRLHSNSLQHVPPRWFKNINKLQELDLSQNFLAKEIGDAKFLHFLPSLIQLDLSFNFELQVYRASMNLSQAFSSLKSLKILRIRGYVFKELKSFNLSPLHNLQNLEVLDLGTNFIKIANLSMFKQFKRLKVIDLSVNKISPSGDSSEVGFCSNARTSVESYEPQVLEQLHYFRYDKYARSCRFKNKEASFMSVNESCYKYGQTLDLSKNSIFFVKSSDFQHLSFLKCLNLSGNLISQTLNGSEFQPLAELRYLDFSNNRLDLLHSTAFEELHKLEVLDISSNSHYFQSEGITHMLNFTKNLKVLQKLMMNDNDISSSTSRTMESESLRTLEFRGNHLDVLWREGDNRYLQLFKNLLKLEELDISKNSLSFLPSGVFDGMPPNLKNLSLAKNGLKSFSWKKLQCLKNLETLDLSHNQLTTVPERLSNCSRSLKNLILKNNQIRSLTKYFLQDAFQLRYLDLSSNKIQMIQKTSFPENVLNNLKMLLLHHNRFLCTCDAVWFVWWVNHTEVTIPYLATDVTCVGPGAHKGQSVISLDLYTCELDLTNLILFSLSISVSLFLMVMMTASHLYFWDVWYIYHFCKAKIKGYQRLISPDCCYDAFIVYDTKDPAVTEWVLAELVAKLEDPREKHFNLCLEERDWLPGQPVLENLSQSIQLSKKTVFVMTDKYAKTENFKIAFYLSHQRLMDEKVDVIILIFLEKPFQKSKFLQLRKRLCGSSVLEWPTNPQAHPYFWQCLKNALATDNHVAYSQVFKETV
Method: (§1) TLR7/8/9 Inhibition Reporter Assays
(§2) HEK-Blue™-cells (Invivogen) overexpressing human TLR7, TLR8 or TLR9 receptors were used for screening inhibitors of these receptors using an inducible SLAP (secreted embryonic alkaline phosphatase) reporter gene under the control of the […] minimal promoter fused to five NF-κB and AP-1-binding sites. Briefly, cells are seeded into Greiner 384 well plates (15000 cells per well for TLR7, 20,000 for TLR8 and 25,000 for TLR9) and then treated with test compounds in DMSO to yield a final dose response concentration range of 0.05 nM-50 μM. After a 30 minute compound pre-treatment at room temperature, the cells are then stimulated with a TLR7 ligand (gardiquimod at a final concentration of 7.5 μM), TLR8 ligand (R848 at a final concentration of 15.9 μM) or TLR9 ligand (ODN2006 at a final concentration of 5 nM) to activate NF-κB and AP-1 which induce the production of SLAP. After a 22 hour incubation at 37° C., […], SLAP levels are determined with the addition of HEK-Blue™ Detection reagent (Invivogen), a cell culture medium that allows for detection of SLAP, according to manufacturer's specifications. The percent inhibition is determined as the […] in the HEK-Blue signal present in wells treated with agonist plus DMSO alone compared to wells treated with a known inhibitor.

[3] = target: T3, human TLR8 (Homo sapiens, UniProt Q9NR97); test: TLR8 inhibition reporter assay (HEK-Blue cells, secreted embryonic alkaline phosphatase reporter); settings: HEK-Blue cells overexpressing human TLR8, stimulated with R848 15.9 μM; read-out: TLR 8 IC50
T3 construct: host or cells: HEK-Blue cells (HEK293-derived reporter line)
T3 sequence (Q9NR97 27-1041): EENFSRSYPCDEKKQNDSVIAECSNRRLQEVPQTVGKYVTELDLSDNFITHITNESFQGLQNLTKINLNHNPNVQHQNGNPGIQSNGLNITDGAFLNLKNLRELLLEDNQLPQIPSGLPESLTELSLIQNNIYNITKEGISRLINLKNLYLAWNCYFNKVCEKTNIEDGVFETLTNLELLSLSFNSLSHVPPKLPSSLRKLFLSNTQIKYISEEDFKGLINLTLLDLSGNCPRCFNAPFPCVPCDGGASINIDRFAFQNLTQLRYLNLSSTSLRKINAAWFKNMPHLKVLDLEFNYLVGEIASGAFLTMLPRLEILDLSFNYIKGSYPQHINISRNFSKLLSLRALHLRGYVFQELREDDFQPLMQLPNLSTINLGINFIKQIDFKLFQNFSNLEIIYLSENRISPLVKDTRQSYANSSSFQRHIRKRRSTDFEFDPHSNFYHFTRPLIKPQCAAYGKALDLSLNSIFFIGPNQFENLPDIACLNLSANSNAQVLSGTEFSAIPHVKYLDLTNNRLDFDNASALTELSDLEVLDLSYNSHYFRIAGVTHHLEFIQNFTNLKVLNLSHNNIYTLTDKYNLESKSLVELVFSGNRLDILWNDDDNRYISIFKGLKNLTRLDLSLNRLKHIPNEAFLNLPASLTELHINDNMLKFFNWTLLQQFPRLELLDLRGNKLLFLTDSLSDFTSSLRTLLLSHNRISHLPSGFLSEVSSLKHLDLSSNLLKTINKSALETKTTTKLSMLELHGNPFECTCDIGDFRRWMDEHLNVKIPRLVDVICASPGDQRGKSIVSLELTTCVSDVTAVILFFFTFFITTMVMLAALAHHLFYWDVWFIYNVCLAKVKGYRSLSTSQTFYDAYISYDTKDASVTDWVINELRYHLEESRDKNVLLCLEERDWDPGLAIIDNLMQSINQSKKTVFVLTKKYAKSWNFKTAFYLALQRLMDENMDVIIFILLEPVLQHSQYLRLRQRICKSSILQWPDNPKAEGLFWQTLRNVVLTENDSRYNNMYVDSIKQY
Method: as §1, §2

[4] = 22 hour incubation, reporter readout

SMILES | IC50 [1, 4] [nM] | IC50 [2] [nM] | IC50 [3] [nM] | IC50 ([1]; read-out: TLR 9 IC50) [nM]
COc1ccc(-c2nc3c(C)cc(C4CCN(C5CC6CCC(C5)N6CC(C)C)CC4)cc3[nH]2)cc1OC (single isomer, unassigned) [Example 19, 2-(3,4-dimethoxyphenyl)-6-(1-(8-isobutyl-8-azabicyclo[3.2.1]octan-3-yl)piperidin-4-yl)-4-methyl-1H-benzo[d]imidazole] | 28 | 2500 | > 50000 | –
COc1ccc(-c2nc3c(C)cc(C4CCN(C5CC6CCC(C5)N6CC(C)C)CC4)cc3[nH]2)cc1OC (single isomer, unassigned) [Example 20, 2-(3,4-dimethoxyphenyl)-6-(1-(8-isobutyl-8-azabicyclo[3.2.1]octan-3-yl)piperidin-4-yl)-4-methyl-1H-benzo[d]imidazole] | 69 | 4100 | > 50000 | –
Cc1cc(C2CCN(C3CC4CCC(C3)N4C(C)C)CC2)cc2c1nc(-c1ccc(S(C)(=O)=O)cc1)n2C (single isomer, unassigned) [Example 84, 6-(1-(8-isopropyl-8-azabicyclo[3.2.1]octan-3-yl)piperidin-4-yl)-1,4-dimethyl-2-(4-(methylsulfonyl)phenyl)-1H-benzo[d]imidazole] | 72 | 18600 | > 25000 | –
Cc1cc(C2CCN(C3CC4CCC(C3)N4C(C)C)CC2)cc2c1nc(-c1ccc(S(C)(=O)=O)cc1)n2C (single isomer, unassigned) [Example 85, 6-(1-(8-isopropyl-8-azabicyclo[3.2.1]octan-3-yl)piperidin-4-yl)-1,4-dimethyl-2-(4-(methylsulfonyl)phenyl)-1H-benzo[d]imidazole] | 110 | 5700 | > 25000 | 106
CC(C)N1C2CCC1CC(N1CCC(c3ccc4c(nc(-c5ccc(S(C)(=O)=O)cc5)n4C)c3F)CC1)C2 (single isomer, unassigned) [Example 89, 4-fluoro-5-(1-(8-isopropyl-8-azabicyclo[3.2.1]octan-3-yl)piperidin-4-yl)-1-methyl-2-(4-(methylsulfonyl)phenyl)-1H-benzo[d]imidazole] | 160 | > 50000 | > 50000 | 162
CC(C)N1C2CCC1CC(N1CCC(c3ccc4c(nc(-c5ccc(S(C)(=O)=O)cc5)n4C)c3F)CC1)C2 (single isomer, unassigned) [Example 90, 4-fluoro-5-(1-(8-isopropyl-8-azabicyclo[3.2.1]octan-3-yl)piperidin-4-yl)-1-methyl-2-(4-(methylsulfonyl)phenyl)-1H-benzo[d]imidazole] | 230 | > 50000 | > 50000 | 231
CC(C)N1C2CCC1CC(N1CCC(c3cc(F)c4c(c3)nc(-c3ccc(S(C)(=O)=O)cc3)n4C)CC1)C2 (single isomer, unassigned) [Example 92, 7-fluoro-5-(1-(8-isopropyl-8-azabicyclo[3.2.1]octan-3-yl)piperidin-4-yl)-1-methyl-2-(4-(methylsulfonyl)phenyl)-1H-benzo[d]imidazole] | 110 | > 50000 | > 50000 | 105
CC(C)N1C2CCC1CC(N1CCC(c3cc(F)c4c(c3)nc(-c3ccc(S(C)(=O)=O)cc3)n4C)CC1)C2 (single isomer, unassigned) [Example 93, 7-fluoro-5-(1-(8-isopropyl-8-azabicyclo[3.2.1]octan-3-yl)piperidin-4-yl)-1-methyl-2-(4-(methylsulfonyl)phenyl)-1H-benzo[d]imidazole] | 650 | > 50000 | > 50000 | –
CC(C)N1C2CCC1CC(N1CCC(c3ccc4nc(-c5ccc(S(C)(=O)=O)cc5)[nH]c4c3F)CC1)C2 (single isomer, unassigned) [Example 94, 7-fluoro-6-(1-(8-isopropyl-8-azabicyclo[3.2.1]octan-3-yl)piperidin-4-yl)-2-(4-(methylsulfonyl)phenyl)-1H-benzo[d]imidazole] | 73 | > 50000 | > 50000 | –
